Test results: PMC5089669, “Biocatalytic Properties and Structural Analysis of Eugenol Oxidase from Rhodococcus jostii RHA1: A Versatile Oxidative Biocatalyst” (Chembiochem, 2016)

Assays:
[1] = target: T1, Eugenol oxidase (EUGO) (Rhodococcus jostii, UniProt Q0SBK1); assay: crystal structure; type: binding; details: covalent; His390 to C8M of flavin
T1 construct: gene RHA1_ro03282; homodimer
T1 sequence (Q0SBK1 1-526): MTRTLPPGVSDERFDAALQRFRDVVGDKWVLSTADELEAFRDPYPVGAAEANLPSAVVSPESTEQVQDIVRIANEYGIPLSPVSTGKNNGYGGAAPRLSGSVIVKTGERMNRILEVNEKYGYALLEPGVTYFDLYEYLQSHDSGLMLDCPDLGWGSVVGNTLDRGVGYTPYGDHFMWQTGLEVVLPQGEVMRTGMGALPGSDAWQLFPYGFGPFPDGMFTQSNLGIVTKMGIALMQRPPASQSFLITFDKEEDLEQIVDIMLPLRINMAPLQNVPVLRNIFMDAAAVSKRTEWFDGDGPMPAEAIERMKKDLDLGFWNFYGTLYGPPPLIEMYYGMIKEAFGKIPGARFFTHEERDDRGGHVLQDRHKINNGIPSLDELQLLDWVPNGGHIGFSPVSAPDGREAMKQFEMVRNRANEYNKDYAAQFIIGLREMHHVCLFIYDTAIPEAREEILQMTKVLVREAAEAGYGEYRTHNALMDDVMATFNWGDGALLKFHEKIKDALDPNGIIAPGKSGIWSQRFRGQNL

[2] = target: T1, Eugenol oxidase (EUGO); assay: crystal structure of unsoaked native crystals; type: binding; details: weak inhibitor; density tentatively assigned, co-purified; active site Tyr-Tyr-Arg

**Q.** With `Cc1cc2nc3c(=O)[nH]c(=O)nc-3n(C[C@H](O)[C@H](O)[C@H](O)COP(=O)(O)OP(=O)(O)OC[C@H]3O[C@@H](n4cnc5c(N)ncnc54)[C@H](O)[C@@H]3O)c2cc1C` [FAD] as the compound, how does the crystal structure [1] read?
**A.** The crystal structure was “covalent bond between His390 (equivalent to His422 of VAO) and the C8M atom”.

**Q.** With `O=C(O)c1ccccc1` [benzoate] as the compound, how does the “crystal structure of unsoaked native crystals” value [2] read?
**A.** The value was “we found benzoate to be a weak EUGO inhibitor”.
